Read-outs that look alike come from different tables or passages of the source. Each block holds one compound with its values, some of them ahead of it.
How the values were obtained:
rats ZUCKER fa/fa = test: Test in vivo on rats (weight and measurement over 5 weeks); details: group II ionisation every two days
Source text: Three groups of 4 rats ZUCKER fa/fa defined in an homogeneous way were placed in the animal house at 8 weeks. The experiment begins when the rats have reached 9 weeks and similar weights (240±15 g); they are placed in individual cage with water and food ad libidum. The whole of the rats are circularly hair removed on median part in order to tattoo an axis between the neck and the tail. On a group N^o I, the emulsion described in example 1 is daily applied on the hair-removed part until absorption with removing the excess. […] A third group is used as the control (group C). These experiments are carried out during 5 weeks.

[1] = Comparative study of cutaneous diffusion (diffusion cell); details: solution at 30 mM, 0.2 ml by cm^2 on hairless rat skin; L-arginine dosed by HPLC in dialysate
Procedure: (§1) Hairless rats are sacrified by intra-cardiac injection of pentobarbital; the ventral skin is recollected and hypodermis is removed with a scalpel. 0.2 ml by cm^2 of the solution to be tested are dropped on a piece of skin (dermis and epidermis) which is set on a diffusion cell. The diffusion is tested in comparison with phosphate buffer containing 0.5% of tween 20.
(§2) At different times, the phosphate buffer is replaced and L-arginine is dosed by HPLC in the recollected dialysate fractions.

[2] = test system: Segments of perirenal adipose tissue; test: Lipolytic activity in vitro (glycerol liberation); type: cell-based, male rabbits; details: rabbit perirenal adipose tissue, 37° C.
Procedure: The in vitro lipolytic activity of solutions containing compounds according to the invention is tested (Solutions at 4%).
Segments of perirenal adipose tissue of male rabbits are incubed in a Krebs-Ringer bicarbonate buffer pH 7.4, which contains 5,5 mM glucose, 40 mg/ml of bovin albumin serum. The total volume of incubation is 3 ml with the substance to be tested prepared in 0.01 M of NH4HCO3 and additionned in a volume of 0.1 ml. The preparations are stirred at 37° C., under a 95% O2, 5% CO2 atmosphere.
The lipolytic activity levels are quantified by glycerol liberation in the incubation medium and are expressed by gramme of lipid. The glycerol is dosed in duplicate by enzymatic method: glycerokinase, glycerophosphate deshydrogenase (Boerhinger-Mannheim), method of Wieland (32), modified by Vaughan (33).

[3] = hairless, rat, 30 mM
Procedure: as §1, §2

Compound: N=C(N)NCCC[C@H](N)C(=O)O.O=C(O)c1ccccc1O [Group II, arginium salicylate]
- Meas (rats ZUCKER fa/fa; Week 1, group I daily topical): 189.75 mm
- Weight (rats ZUCKER fa/fa; Week 1, group I daily topical): 280.25 g
- Meas (rats ZUCKER fa/fa; Week 2, group I daily topical): 213.25 mm
- Weights (rats ZUCKER fa/fa; Week 2, group I daily topical): 318.25 g
- Meas (rats ZUCKER fa/fa; Week 3, group I daily topical): 224.25 mm
- Weights (rats ZUCKER fa/fa; Week 3, group I daily topical): 345.5 g
- Meas (rats ZUCKER fa/fa; Week 4, group I daily topical): 233.25 mm
- Weights (rats ZUCKER fa/fa; Week 4, group I daily topical): 367.25 g
- Meas (rats ZUCKER fa/fa; Week 5, group I daily topical): 238.5 mm
- Weights (rats ZUCKER fa/fa; Week 5, group I daily topical): 386.25 g

- % of diffusion after 5h [1]: 51%
Compound: CC(C)(C)C(=O)OCOC(=O)[C@@H](N)CCCNC(=N)N [L-arginylpivalloyoxymethylester]

Compound: C[Si](O)(O)OC(=O)C(N)CCCNC(=N)N [Monomethylsilanediol of L-arginine]
- Glycerol ([2]; 15 mg/L): 1 ± 0.5 nmoles/g of lipids
- Glycerol ([2]; 30 mg/L): 2.40 ± 0.35 nmoles/g of lipids
- Glycerol ([2]; 45 mg/L): 2.5 ± 0.35 nmoles/g of lipids
- % of diffusion after 5h [3]: 42%
